We go through 1 molecule from US20260207585A1, “METHODS AND COMPOSITIONS FOR THE TREATMENT OF PARKINSON'S DISEASE, HUNTINGTON'S DISEASE, AMYOTROPHIC LATERAL SCLEROSIS, AND LEARNING DISORDERS” (Cedars-Sinai Medical Center, priority 2022, published 2026).

One assay deals with T1, NSD2 (Homo sapiens, UniProt O96028).
T1 sequence (O96028 1-1365): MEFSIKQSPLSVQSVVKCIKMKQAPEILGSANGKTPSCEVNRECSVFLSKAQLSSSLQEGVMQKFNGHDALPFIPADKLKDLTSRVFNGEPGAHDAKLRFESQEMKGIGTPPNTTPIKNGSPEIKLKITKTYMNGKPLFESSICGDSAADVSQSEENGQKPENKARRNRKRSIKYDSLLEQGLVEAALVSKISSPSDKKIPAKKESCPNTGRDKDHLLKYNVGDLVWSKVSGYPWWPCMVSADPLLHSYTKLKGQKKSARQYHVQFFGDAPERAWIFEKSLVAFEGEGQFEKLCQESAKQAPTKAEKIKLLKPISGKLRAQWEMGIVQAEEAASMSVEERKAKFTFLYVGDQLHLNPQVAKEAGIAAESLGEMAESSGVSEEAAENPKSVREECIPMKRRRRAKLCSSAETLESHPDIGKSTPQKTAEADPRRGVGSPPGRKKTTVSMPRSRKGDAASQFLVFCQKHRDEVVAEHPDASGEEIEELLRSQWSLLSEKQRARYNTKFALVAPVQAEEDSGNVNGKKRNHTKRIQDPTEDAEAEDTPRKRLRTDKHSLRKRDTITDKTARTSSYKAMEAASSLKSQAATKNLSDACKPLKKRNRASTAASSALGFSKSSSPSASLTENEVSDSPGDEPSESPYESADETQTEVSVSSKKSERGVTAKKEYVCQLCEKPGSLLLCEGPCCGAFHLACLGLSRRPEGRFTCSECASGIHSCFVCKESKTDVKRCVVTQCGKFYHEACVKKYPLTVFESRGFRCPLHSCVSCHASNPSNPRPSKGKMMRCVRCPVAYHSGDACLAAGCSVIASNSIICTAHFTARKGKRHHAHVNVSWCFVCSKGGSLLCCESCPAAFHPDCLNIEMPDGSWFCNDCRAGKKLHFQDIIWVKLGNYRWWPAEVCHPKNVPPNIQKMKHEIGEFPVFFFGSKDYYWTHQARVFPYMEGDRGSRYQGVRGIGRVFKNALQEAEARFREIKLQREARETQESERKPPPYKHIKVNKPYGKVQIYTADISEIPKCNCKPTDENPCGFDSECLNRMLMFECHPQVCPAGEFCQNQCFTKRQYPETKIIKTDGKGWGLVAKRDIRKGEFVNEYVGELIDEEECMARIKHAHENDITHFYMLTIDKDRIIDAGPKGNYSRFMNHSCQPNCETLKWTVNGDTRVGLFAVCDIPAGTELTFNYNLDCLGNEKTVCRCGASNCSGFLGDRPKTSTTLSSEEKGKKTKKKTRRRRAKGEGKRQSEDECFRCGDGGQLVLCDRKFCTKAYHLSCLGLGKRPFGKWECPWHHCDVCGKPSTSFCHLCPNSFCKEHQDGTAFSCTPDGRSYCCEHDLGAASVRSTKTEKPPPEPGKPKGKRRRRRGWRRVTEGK
The experiment in a line: Methyltransferase inhibition panel: NSD2. The class given is biochemical. The protocol: (§1) The ability of ETP69 to inhibit methyltransferases was tested.

Another assay addresses T2, SMYD3 (Homo sapiens, UniProt Q9H7B4).
T2 sequence (Q9H7B4 1-428): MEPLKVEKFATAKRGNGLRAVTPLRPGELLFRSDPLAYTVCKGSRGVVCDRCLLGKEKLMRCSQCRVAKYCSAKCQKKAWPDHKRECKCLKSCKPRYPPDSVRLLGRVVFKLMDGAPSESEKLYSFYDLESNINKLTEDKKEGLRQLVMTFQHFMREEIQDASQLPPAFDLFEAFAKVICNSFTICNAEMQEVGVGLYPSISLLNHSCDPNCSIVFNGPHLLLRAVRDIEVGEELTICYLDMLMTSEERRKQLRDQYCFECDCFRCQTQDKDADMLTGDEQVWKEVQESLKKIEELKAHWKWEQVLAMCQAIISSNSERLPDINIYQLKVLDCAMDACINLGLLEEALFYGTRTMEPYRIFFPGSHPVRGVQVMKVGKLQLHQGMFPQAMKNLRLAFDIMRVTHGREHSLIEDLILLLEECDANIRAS
The experiment in a line: Methyltransferase inhibition panel: SMYD3. The class given is biochemical. The protocol: as §1

The mark [1] stands for this setting: read-out: Enzyme % Activity (relative to DMSO controls) Data 1.
[2] abbreviates: read-out: Enzyme % Activity (relative to DMSO controls) Data 2.

Structures are written as SMILES. Where two headings read alike, the source gives them in different places.

As to `CN1C(=O)[C@@]23C[C@](C)(C#N)[C@H](c4ccc5c(c4)OCO5)N2C(=O)[C@]1(C)SS3` (racemic) [ETP69, Rac-(3S,6S,7S,8aS)-6-(benzo[d][1,3]dioxol-5-yl)-2,3,7-trimethyl-1,4-dioxohexahydro-6H-3,8a-epidithiopyrrolo[1,2-a]pyrazine-7-carbonitrile], the remaining activity at 20 µM on NSD2 (setting [1]) was found to be 20%; on NSD2 (setting [2]), 19.9%; at SMYD3 (setting [1]) it was 8.99%; on SMYD3 (setting [2]), 7.71%. Besides, the “inhibition relative to DMSO controls” value against NSD2 (summary of Table 1) and against SMYD3 (summary of Table 1) was “at least 7500” throughout.
